Earlier results as cited in patent US20210244941A1, “METHODS AND APPARATUS FOR A WEARABLE ELECTRONIC DIGITAL THERAPEUTIC DEVICE” (KINAPTIC, LLC, priority 2018, published 2021).
Like-named read-outs stand apart in the source and are kept apart here.

Legend:
[1] = rats, oral dosing
[2] = dogs, oral dosing
[3] = not given; remark: listed apart in the source
[4] = single- (up to 80 mg) and multiple-dose studies, healthy subjects and patients

Row | physical sensation or discomfort (sweat glands; iontophoresis, electrical current at 0.2 milliamps into upper layer of skin) | absolute bioavailability [1] | absolute bioavailability [2] | increase in area under the concentration-time curve (AUC) (animal models) | absorption after oral dosing (animal models, oral dosing) | excretion (rats and dogs, renal and faecal/biliary routes) | absorption ([3]; single doses, humans) | oral bioavailability ([3]; single doses, humans) | accumulation [3, 4] | pharmacokinetics versus dose [3, 4] | SMILES | sweat induction (sweat glands; gel containing carbachol on sensors, sedentary patient) | safety and tolerability ([3]; single doses, humans)
1 | no physical sensation or discomfort |  |  |  |  |  |  |  |  |  | C[N+](C)(C)CCOC(N)=O [carbachol] | effective to induce sweat | 
2 |  | 57-66% | 60-86% | dose proportional increase | absorbed rapidly | rapidly excreted | rapid absorption | high | no evidence of accumulation | dose-proportional | O=C(NC[C@H]1CN(c2ccc(N3CCOCC3=O)cc2)C(=O)O1)c1ccc(Cl)s1 [rivaroxaban] |  | safe and well tolerated
